{"source": "paper PMC10541198", "about": "“Specific quinone reductase 2 inhibitors reduce metabolic burden and reverse Alzheimer’s disease phenotype in mice” (The Journal of Clinical Investigation, 2023)", "system": "Amyloid β", "experiment": "IHC of amyloid β in 5xFAD brain sections", "assay_type": "in vivo, mouse", "details": "for Amyloid β normalized volume (individual mice): CA1, 5xFAD 1 month; for Figure 9B, IHC signal / Sup. Fig. 6-1B, IHC signal: individual animals; for Amyloid β vs vehicle: cortex, 5xFAD 1 month", "description": "Following the behavioral experiments, we assessed brain pathologies associated with AD present in the 5xFAD mice ([37]). Therefore, 5 days following the last behavioral experiment, and 1 month after the start of YB-537 consumption, mice were sacrificed, and coronal brain sections were used for IHC. Since the CA1 region of the hippocampus is affected during AD pathogenesis ([37]), and this brain region is involved in the behavioral paradigms used here, we acquired images of CA1. This was done with an Olympus IX83 confocal microscope using the same settings, antibodies, and exposures in all mice. Images were analyzed using Imaris (Bitplane; see methods). For each mouse, 3 coronal sections were used per antibody. In each section, the same region of CA1 was acquired, using the same image frame size and resolution, at all possible depths of the section — using a Z-stack of the whole section — to allow measurement of the fluorescent antibody marker volume, which was normalized to the brain volume from which it was taken. First, we measured oxidative stress, as indicated by 4-HNE ([38]) (Abcam, ab48506).\nPerfused and fixed brain slices were blocked with 10% normal donkey serum (DNS) and 0.2% triton (Sigma-Aldrich) in PBS. Antibodies, including 4-HNE (AbCam, ab48506), Iba1 (AbCam, ab5076), AT-8 (Thermo, MN1020), Amyloid β (AbCam, ab201060), diluted in PBS with 10% DNS, were incubated at 4°C overnight. Secondary antibodies including donkey-anti-goat Alexa Fluor 568 (AbCam, ab175704), donkey-anti-mouse Cy 5 (Jackson Immuno Research, 715-175-151), and donkey-anti-rabbit DyLight 488 (AbCam, ab98488) all diluted 1:500 in PBS with 1% BSA, were applied to the slices at RT for 2 hours the next day. Slices were mounted onto glass slides using DAPI containing Vectashield (H-1200). Images were taken using a confocal microscope (Olympus IX83). Three slices were used per mouse per antibody. Tiling images of the dorsal CA1 and cortex (Bregma: –1.58mm to –2.30mm) were taken using ×20 objective, acquiring a Z-stack of the whole section. Analysis of the images was done blind by an experimenter unaware of the experimental conditions or details, using Imaris (Bitplane) software. A surface reconstruction module was used to extract the data as volumes of the used markers (4-HNE, phospho-tau, amyloid β, GFAP, and Iba1). Marker volume and intensity were normalized to the corresponding brain volume. The normalized value was averaged for each triplicate and presented here. […]\nBrains were then briefly removed and placed in chilled, 4% PFA for 48 h, f oll owe d by immersion in 30% sucrose in 0.1 M PBS for a furt her 48 h. Bra i ns wer e t h e n stored at -80°C, until t he y were sliced into 40µm coronal sections usinga Lei ca CM 1950cryostat. Sli ces were then washed x3 in PBS and bl oc ke d for 1 h at RT using 10% normal donkey serum (DNS) and 0.2% triton (Sigma-Aldrich) in PBS. Antibodies, including 4- HNE (1:500, AbCam, ab48506), Iba1 (1:2,000, AbCam, ab5076), GFAP (Abcam, ab53554), phospho- tau (1:1,000, Thermo, MN1020) and amyloid β (1:1,000, AbCam, ab201060) diluted in PBS with 10% DNS were incubated at 4°C overnight. The next day, the slices were washed x3 times in PBS, and secondary antibodies including donkey anti goat A l e x a Fluor 568 (AbCam, ab175704), donkey anti-mouse Cy 5 (Jackson Immuno Research, 715- 175- 151) and donkey anti-rabbit DyLight 488 (AbCam, ab98488) all diluted 1:500 in PBS with 1% BSA, were applied to the slices at RT for 2 h. Following the incubation, the slices were washed x3 times in PBS, mounted onto gl ass slides, were uniformly covered in DAPI containing Vectashield (H-1200) and coverslips were a dde d. […]", "note": "“And” between values parts separate entries of the source, which are not always exact repeats. Equal entries are not always repeated.", "data": [{"compound": "Cc1ccc(-c2cn3cccc(C)c3n2)cc1S(=O)(=O)N1CCNCC1", "note": "[YB-537]", "values": [{"measurement": "Amyloid β normalized volume (individual mice)", "setting": "Females", "result": "0.0438 and 0.0503 and 0.0630 and 0.0517 and 0.0415 and 0.0377 and 0.0224"}, {"measurement": "Amyloid β normalized volume (individual mice)", "setting": "Males", "result": "0.0456 and 0.0411 and 0.0568 and 0.0482 and 0.0215 and 0.0315 and 0.0453 and 0.0211 and 0.0327"}, {"measurement": "Amyloid β normalized volume (individual mice)", "setting": "Males + Females", "result": "0.0438 and 0.0503 and 0.0630 and 0.0315 and 0.0453 and 0.0211 and 0.0327 and 0.0456 and 0.0411 and 0.0568 and 0.0482 and 0.0215 and 0.0517 and 0.0415 and 0.0377 and 0.0224"}, {"measurement": "Figure 9B, IHC signal", "setting": "Cortex", "result": "0.0014 and 0.0009 and 0.0012 and 0.0011 and 0.0040 and 0.0050 and 0.0062 and 0.0018 and 0.0015"}, {"measurement": "Sup. Fig. 6-1B, IHC signal", "setting": "Females", "result": "0.0046 and 0.0222 and 0.0056 and 0.0307 and 0.0209 and 0.0044 and 0.0060"}, {"measurement": "Figure 9B, IHC signal", "setting": "Hippocampus", "result": "0.0022 and 0.0020 and 0.0026 and 0.0016 and 0.0029 and 0.0072 and 0.0052 and 0.0013"}, {"measurement": "Sup. Fig. 6-1B, IHC signal", "setting": "Males", "result": "0.0033 and 0.0053 and 0.0092 and 0.0140 and 0.0194 and 0.0050 and 0.0040 and 0.0079 and 0.0183"}, {"measurement": "Amyloid β vs vehicle", "setting": "females", "result": "unchanged"}, {"measurement": "Amyloid β vs vehicle", "setting": "males", "result": "insignificantly reduced"}, {"measurement": "Amyloid β vs vehicle", "setting": "total population", "result": "not significantly reduced"}]}]}
